Reference: the supplement of paper PMC10307832

Experiments:
Assay in all cases: relative viability (nuclei count vs DMSO), 5 days (fraction); higher = more cells survive
[1] = compound: CC[C@@H](C)CNCC(=O)N1CCC2=C([C@@H]1COC3=CC=CC(=C3)C)C=CS2 [RU-SKI 43] + CS(=O)(=O)CCNCc1ccc(-c2ccc3ncnc(Nc4ccc(OCc5cccc(F)c5)c(Cl)c4)c3c2)o1 [Lapatinib] (partner 2 µM)
Procedure, shortened: (§1)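 Relative viability equals treated-well nuclei counts divided by vehicle-well nuclei counts. Counts came from 4× images of lung cancer cell lines grown in 1536-well plates for 5 days after pin-tool dosing on the day after seeding. Dosing used one drug alone or a fixed anchor-drug dose plus five library-drug doses (not always all listed) in √10 steps, and values are medians of duplicate plates.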

[2] = compound: Cn1cc(-c2cnc3ccc4ccc(CS(=O)(=O)NCc5ccccn5)cc4c(=O)c3c2)cn1 [MK-8033] + CC(=O)Nc1cccc(-n2c(=O)n(C3CC3)c(=O)c3c(Nc4ccc(I)cc4F)n(C)c(=O)c(C)c32)c1 [Trametinib] (partner 0.02 µM)
Procedure, shortened: as §1

[3] = compound: Cn1cc(-c2cnc3ccc4ccc(CS(=O)(=O)NCc5ccccn5)cc4c(=O)c3c2)cn1 [MK-8033] + CC(=O)c1c(C)c2cnc(Nc3ccc(N4CCNCC4)cn3)nc2n(C2CCCC2)c1=O [Palbociclib] (partner 0.5 µM)
Procedure, shortened: as §1

[4] = compound: Cn1cc(-c2cnc3ccc4ccc(CS(=O)(=O)NCc5ccccn5)cc4c(=O)c3c2)cn1 [MK-8033] + C[C@@H](Oc1cc(-c2cnn(C3CCNCC3)c2)cnc1N)c1c(Cl)ccc(F)c1Cl [Crizotinib] (partner 1 µM)
Procedure, shortened: as §1

Cell Line	relative viability ([1]; first compound 0.1 µM)	relative viability ([1]; first compound 0.3162 µM)	relative viability ([1]; first compound 1 µM)	relative viability ([1]; first compound 3.162 µM)	relative viability ([1]; first compound 10 µM)	relative viability ([2]; first compound 0.02 µM)	relative viability ([2]; first compound 0.06325 µM)	relative viability ([2]; first compound 0.2 µM)	relative viability ([2]; first compound 0.6325 µM)	relative viability ([2]; first compound 2 µM)	relative viability ([3]; first compound 0.02 µM)	relative viability ([3]; first compound 0.06325 µM)	relative viability ([3]; first compound 0.2 µM)	relative viability ([3]; first compound 0.6325 µM)	relative viability ([3]; first compound 2 µM)	relative viability ([4]; first compound 0.02 µM)	relative viability ([4]; first compound 0.06325 µM)	relative viability ([4]; first compound 0.2 µM)	relative viability ([4]; first compound 0.6325 µM)	relative viability ([4]; first compound 2 µM)
NCI-H2347	0.951	0.829	1.08	1.04	0.726	0.326	0.344	0.295	0.287	0.281	0.368	0.408	0.428	0.441	0.464	0.752	0.667	0.665	0.618	0.823
201T	1.1	0.997	1.06	1.05	1.01	0.778	0.76	0.709	0.782	0.73	0.329	0.37	0.356	0.369	0.367	1.07	0.991	1.03	0.874	1.03
NCI-H1650	0.696	0.81	0.885	0.858	0.637	0.568	0.637	0.53	0.625	0.54	0.363	0.296	0.324	0.336	0.336	0.997	0.867	0.996	0.919	0.832
NCI-H1734	1.08	1.08	1.1	1.08	0.998	0.655	0.594	0.712	0.636	0.687	0.349	0.309	0.342	0.331	0.371	0.682	0.547	0.645	0.508	0.595
SW 1573	1.27	1.11	1.07	1.11	1.16	0.471	0.504	0.573	0.582	0.568	0.373	0.392	0.345	0.409	0.389	0.798	0.743	0.752	0.416	0.695
NCI-H1993	0.739	0.859	0.717	0.822	1.8	0.55	0.506	0.427	0.469	0.456	0.563	0.566	0.453	0.649	0.424	0.734	0.658	0.836	0.668	0.819
NCI-H1755	1.03	1.4	1.08	0.995	1.01	0.804	0.767	0.74	0.702	0.732	0.452	0.452	0.413	0.464	0.417	0.811	0.782	0.878	0.847	0.803
PC-14	0.362	0.362	0.414	0.335	0.239	0.723	0.604	0.649	0.774	0.654	0.517	0.422	0.542	0.553	0.464	0.932	0.81	0.875	0.889	0.817
NCI-H358	0.483	0.545	0.495	0.53	0.448	0.141	0.124	0.11	0.146	0.131	0.144	0.129	0.128	0.136	0.151	0.493	0.503	0.595	0.434	0.508
LK-2	1.38	1.09	1.19	1.03	1.03	0.668	0.687	0.688	0.849	0.766	0.623	0.528	0.686	0.885	0.502	0.228	0.226	0.244	0.23	0.25
HCC-827	0.189	0.197	0.211	0.213	0.162	0.578		0.534	0.547	0.605	0.49		0.471	0.49	0.545	0.925		0.955	0.874	0.885
LCLC-97TM1	1.08		1.02	1.04	0.781	0.181	0.19		0.207	0.209	0.243	0.221		0.232	0.216	0.393	0.261	0.508	0.383	0.379
EMC-BAC-2	0.924	0.961	0.933	0.983	0.916	0.804	0.776	0.826	0.928	0.902	0.519	0.485	0.528	0.511	0.505	0.76	0.77	0.718	0.783	0.701
NCI-H647	1.24	1.22	1.16	1.25	1.26	0.449	0.469	0.412	0.456	0.415	0.365	0.338	0.351	0.404	0.43	1.03	0.891	0.959	0.919	0.928
NCI-H1944	0.825	0.793	0.864	0.86	0.817	0.407	0.418	0.395	0.391	0.398	0.306	0.316	0.348	0.324	0.327	1.12		1.02	1.06	1.11
PC-3 [JPC-3]	0.461	0.344	0.454	0.47	0.459	0.599		0.68	0.708	0.666	0.506		0.505	0.516	0.554	0.963		0.902	0.981	0.936

Cell Line	relative viability ([1]; first compound 0.1 µM)	relative viability ([1]; first compound 0.3162 µM)	relative viability ([1]; first compound 1 µM)	relative viability ([1]; first compound 3.162 µM)	relative viability ([1]; first compound 10 µM)	relative viability ([2]; first compound 0.02 µM)	relative viability ([2]; first compound 0.06325 µM)	relative viability ([2]; first compound 0.2 µM)	relative viability ([2]; first compound 0.6325 µM)	relative viability ([2]; first compound 2 µM)	relative viability ([3]; first compound 0.02 µM)	relative viability ([3]; first compound 0.06325 µM)	relative viability ([3]; first compound 0.2 µM)	relative viability ([3]; first compound 0.6325 µM)	relative viability ([3]; first compound 2 µM)	relative viability ([4]; first compound 0.02 µM)	relative viability ([4]; first compound 0.06325 µM)	relative viability ([4]; first compound 0.2 µM)	relative viability ([4]; first compound 0.6325 µM)	relative viability ([4]; first compound 2 µM)
SK-LU-1	0.849	1.02	0.931	0.834	0.929	0.484	0.482	0.437	0.445	0.468	0.411	0.373	0.373	0.367	0.383	0.873	0.874	0.8	0.835	1.02
NCI-H1975	0.968	1.32	0.867	0.853	1.02	0.357	0.301	0.279	0.239	0.405	0.579	0.469	0.51	0.339	0.602	0.896	0.924	0.934	1.06	0.952
HARA	0.816	0.832	0.771	0.705	0.76	0.509	0.525	0.825	0.423	0.689	0.229	0.251	0.311	0.296	0.283	0.964	1.05	0.921	1.08	1.04
H3255	0.249	0.193	0.174	0.192	0.213	0.598		0.562	0.656	0.532	0.307	0.361	0.309	0.307	0.336	0.951	0.759	0.775	0.625	0.787
NCI-H727	0.797	0.905	0.84	0.839	0.927	0.371	0.358	0.339	0.393	0.429	0.668	0.617	0.653	0.612	0.657	0.811	0.677	0.754	0.886	0.792
EKVX	0.185	0.175	0.202	0.208	0.187	0.334	0.297	0.295	0.367	0.344	0.366	0.322	0.362	0.39	0.373	0.966	0.735	0.799	0.908	0.601
NCI-H1666	0.58	0.721	0.695	0.615	0.52	0.846	0.777	0.862	0.787	0.855	0.684	0.627	0.523	0.707	0.598	0.909	0.942	0.982	0.999	1.01
NCI-H1915	1.02	1.22	1.13	1.03	0.993	0.276	0.319	0.274	0.289	0.306	0.538	0.525	0.496	0.492	0.483	0.935	0.896	0.802	0.885	0.911
HCC-366	1.03	1.33	1.21	1.15	1.05	0.43	0.346	0.314	0.279	0.362	0.417	0.343	0.355	0.367	0.351	0.45	0.525	0.59	0.363	0.504
EPLC-272H	0.913	0.831	1.25		0.833	0.247	0.263	0.29	0.275	0.301	0.299	0.356	0.352	0.274	0.349	1.09		0.88	0.843	0.866
NCI-H1792	0.937	1.14	1.42	0.88	0.973	0.536	0.33	0.352	0.437	0.36	0.637	0.63	0.557	0.606	0.615	1.02	0.959	0.982	0.828	1.03
RERF-LC-KJ	0.872	0.892	0.853	0.959	0.825	0.818	0.843	0.812	0.828	0.812	1.11	1.07	1.01	1.08	1.08	0.867	0.849	0.769	0.825	0.79
NCI-H2126	0.797	0.63	0.823	0.779	0.766	0.542	0.554	0.525	0.585	0.569	0.336	0.37	0.346	0.353	0.311	1.04	0.927	0.973	0.976	0.951
NCI-H1355	0.961	1.13	0.897	0.995	0.984	0.415	0.363	0.393	0.447	0.419	0.372	0.379	0.375	0.415	0.381	1.07	0.988	1.03	1.05	1.02
A-427	1.01	1.22	1.1		1	0.775	0.719	0.696	0.752	0.781	0.481	0.552	0.494	0.508	0.492	0.933	0.734	0.824	0.88	0.865
NCI-H3122	1.06	1.03	1.03	1.09	0.979	0.262	0.247	0.21	0.238	0.3	0.155	0.173	0.19	0.191	0.223	0.335	0.249	0.311	0.272	0.286
